# Source: US9255295B2, “Method for evaluating the sensitizing potential of a test compound” (IMMUNOSEARCH, priority 2010, dated 2016)
# Tested on: genes specific for sensitization (BRAK, CTSS, DAPK2, FABP4, HSP27, IL18, HSP90, IL1R2, TPSAB1, CXCR1, DEFB1, DHFR, EHF, IVL, KRT4, MELANA, NGAL, PDZK1IP1, PI3 …)
# Experiment: Expression of the other (non-ARE) sensitization-specific genes in EPISKIN reconstructed skin (quantitative RT-PCR);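 as to CTSS NUMBER OF GENES grade: grade scored against expression in the control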;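 as to CXCR1 NUMBER OF GENES grade: grade scored against expression in the control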;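 as to DAPK2 NUMBER OF GENES grade: grade scored against expression in the control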
# Assay type: cell-based, human
structure (smiles),measurement,setting,value
O=CC=O [Glyoxal],BRAK NUMBER OF GENES grade,0.1%,"0 (if this expression is lower, the grade is 0)"
same,CTSS NUMBER OF GENES grade,0.1%,"0 (if this expression is lower, the grade is 0)"
same,CXCR1 NUMBER OF GENES grade,0.1%,"0 (if this expression is lower, the grade is 0)"
same,DAPK2 NUMBER OF GENES grade,0.1%,"0 (if this expression is lower, the grade is 0)"
same,DEFB1 NUMBER OF GENES grade,0.1%,"0 (if this expression is lower, the grade is 0)"
same,DHFR NUMBER OF GENES grade,0.1%,"0 (if this expression is lower, the grade is 0)"
same,EHF NUMBER OF GENES grade,0.1%,"0 (if this expression is lower, the grade is 0)"
same,FABP4 NUMBER OF GENES grade,0.1%,"0 (if this expression is lower, the grade is 0)"
same,HSP27 NUMBER OF GENES grade,0.1%,"0 (if this expression is lower, the grade is 0)"
same,HSP90 NUMBER OF GENES grade,0.1%,"0 (if this expression is lower, the grade is 0)"
same,IL18 NUMBER OF GENES grade,0.1%,"0 (if this expression is lower, the grade is 0)"
same,IVL NUMBER OF GENES grade,0.1%,"0 (if this expression is lower, the grade is 0)"
same,KRT4 NUMBER OF GENES grade,0.1%,"0 (if this expression is lower, the grade is 0)"
same,MELANA NUMBER OF GENES grade,0.1%,"0 (if this expression is lower, the grade is 0)"
same,NGAL NUMBER OF GENES grade,0.1%,"0 (if this expression is lower, the grade is 0)"
same,P13 NUMBER OF GENES grade,0.1%,"0 (if this expression is lower, the grade is 0)"
same,PDZK1iP1 NUMBER OF GENES grade,0.1%,"0 (if this expression is lower, the grade is 0)"
same,SENS >1.3 (number of genes),0.1%,0
same,SERPINB3 NUMBER OF GENES grade,0.1%,"0 (if this expression is lower, the grade is 0)"
same,TOTAL SENS (number of genes),0.1%,0
same,BRAK expression,"0.1%, compared to the control",0.6
same,CTSS expression,"0.1%, compared to the control",1.0
same,CXCR1 expression,"0.1%, compared to the control",1.1
same,DAPK2 expression,"0.1%, compared to the control",0.9
same,DEFB1 expression,"0.1%, compared to the control",0.8
same,DHFR expression,"0.1%, compared to the control",0.9
same,EHF expression,"0.1%, compared to the control",0.8
same,FABP4 expression,"0.1%, compared to the control",0.4
same,HSP27 expression,"0.1%, compared to the control",0.7
same,HSP90 expression,"0.1%, compared to the control",1.0
same,IL18 expression,"0.1%, compared to the control",0.8
same,IVL expression,"0.1%, compared to the control",0.7
same,KRT4 expression,"0.1%, compared to the control",0.9
same,MELANA expression,"0.1%, compared to the control",0.5
same,NGAL expression,"0.1%, compared to the control",0.7
same,P13 expression,"0.1%, compared to the control",0.8
same,PDZK1iP1 expression,"0.1%, compared to the control",0.9
same,SERPINB3 expression,"0.1%, compared to the control",1.0
same,BRAK NUMBER OF GENES grade,1%,"0 (if this expression is lower, the grade is 0)"
same,CTSS expression compared to control,1%,1.3
same,CTSS grade (NUMBER OF GENES),1%,"1 (If the expression is greater than 1.3 compared to the control, a grade of 11s given)"
same,CXCR1 expression compared to control,1%,1.6
same,CXCR1 grade (NUMBER OF GENES),1%,"1 (If the expression is greater than 1.3 compared to the control, a grade of 11s given)"
same,DAPK2 expression compared to control,1%,0.9
same,DAPK2 grade (NUMBER OF GENES),1%,"0 (if this expression is lower, the grade is 0)"
same,DEFB1 expression compared to control,1%,1.4
same,DEFB1 grade (NUMBER OF GENES),1%,"1 (If the expression is greater than 1.3 compared to the control, a grade of 11s given)"
same,DHFR NUMBER OF GENES grade,1%,"0 (if this expression is lower, the grade is 0)"
same,EHF expression compared to control,1%,0.9
same,EHF grade (NUMBER OF GENES),1%,"0 (if this expression is lower, the grade is 0)"
same,FABP4 expression compared to control,1%,0.8
same,FABP4 grade (NUMBER OF GENES),1%,"0 (if this expression is lower, the grade is 0)"
same,HSP27 expression compared to control,1%,0.8
same,HSP27 grade (NUMBER OF GENES),1%,"0 (if this expression is lower, the grade is 0)"
same,HSP90 NUMBER OF GENES grade,1%,"0 (if this expression is lower, the grade is 0)"
same,IL18 NUMBER OF GENES grade,1%,"0 (if this expression is lower, the grade is 0)"
same,IVL expression compared to control,1%,1.7
same,IVL grade (NUMBER OF GENES),1%,"1 (If the expression is greater than 1.3 compared to the control, a grade of 11s given)"
same,KRT4 NUMBER OF GENES grade,1%,"0 (if this expression is lower, the grade is 0)"
same,MELANA NUMBER OF GENES grade,1%,"0 (if this expression is lower, the grade is 0)"
same,NGAL expression compared to control,1%,0.6
same,NGAL grade (NUMBER OF GENES),1%,"0 (if this expression is lower, the grade is 0)"
same,P13 expression compared to control,1%,1.4
same,P13 grade (NUMBER OF GENES),1%,"1 (If the expression is greater than 1.3 compared to the control, a grade of 11s given)"
same,PDZK1iP1 NUMBER OF GENES grade,1%,"0 (if this expression is lower, the grade is 0)"
same,SENS >1.3 (number of genes),1%,6
same,SERPINB3 NUMBER OF GENES grade,1%,"0 (if this expression is lower, the grade is 0)"
same,TOTAL SENS (number of genes),1%,6
same,BRAK expression,"1%, compared to the control",0.5
same,DHFR expression,"1%, compared to the control",0.9
same,HSP90 expression,"1%, compared to the control",1.1
same,IL18 expression,"1%, compared to the control",1.0
same,KRT4 expression,"1%, compared to the control",0.6
same,MELANA expression,"1%, compared to the control",1.1
same,PDZK1iP1 expression,"1%, compared to the control",1.0
same,SERPINB3 expression,"1%, compared to the control",1.1
